Data reported in US8022075B2, “Diagnostic and remedy for disease caused by amyloid aggregation and/or deposition” (Fujifilm Ri Pharma Co., Ltd., priority 2005, dated 2011).

How the values were obtained:
[1] = In vitro metabolism rate by use of liver microsomes, mouse; format: in vitro ADME, Male CD1 mouse
Protocol: (§1) Liver microsomes (Pooled human Liver Microsomes, Male CD1 mouse, Male Wistar Rat), which is a commercial product of In Vitro Technologies, were employed.
(§2) Each of compound 23, compound 24, and [^125I]-IMPY was dissolved in Milli Q water, to thereby adjust the concentration to 11 μCi/mL (5 nmol/L).
(§3) To a mixture of 100 mM glucose 6-phosphate and […] NADPH solution, an equal volume of […] magnesium chloride was added. Glucose 6-phosphate dehydrogenase was employed at a final concentration of 10 unit/mL. These components were reconstituted upon use.
(§4) Method: To each of the glass test tubes, […] EDTA/0.33M potassium phosphate buffer (150 μL), Milli Q water (200 μL), 0.005 or 0.5 mg protein/mL microsome suspension (50 μL), and a test substance solution (50 μL) were added. The mixture was preliminarily incubated at 37° C. for two minutes. The above-prepared NADPH-generating system (50 μL) was added, to thereby initiate reaction. At an arbitrary point of time, an equal volume of acetonitrile was added, to thereby terminate the reaction. The reaction mixture (50 μL) was sampled into a glass tube for determining the metabolism amount, and saturated ascorbic acid ethanol solution (25 μL) was added thereto. The sample was developed by means of a reverse phase TLC (Whatman KC18F) with 80% methanol. The TLC was brought into contact with an imaging plate, and radioactivity was detected by means of BAS-1800 (product of Fuji Film Co., Ltd.). The metabolism rate was calculated through analysis by means of GraphPad Prism Ver. 4.00 (GraphPad Software, Inc.).

[2] = In vitro metabolism rate by use of liver microsomes, rat; format: in vitro ADME, Male Wistar Rat
Protocol: as §1, §2, §3, §4

[3] = Analysis of radioactive substance in the rat brain after administration (TLC); format: in vivo; details: rat brain homogenate 2 to 120 minutes after administration (FIG. 5)
Protocol: Compounds which had been incorporated into the rat brain were investigated. The left part of the rat brain, obtained in the above experiment (distribution in the rat body) was homogenized by means of a Potter-type homogenizer with 40-mmol/L ascorbic acid-containing PBS (4-fold amount by mass). Acetonitrile (4-fold volume with respect to homogenate) was added to the homogenate, and the mixture was filtered, to thereby remove protein. The acetonitrile layer was developed by means of a reverse phase TLC (Whatman KC18F). The TLC was brought into contact with an imaging plate, and radioactivity was detected by means of BAS-1800 (product of Fuji Film Co., Ltd.). Each of the brain homogenate obtained 2, 5, 40, 60, and 120 minutes after administration was treated with acetonitrile so as to remove protein, and extracted radioactive substances were analyzed through thin-layer chromatography (KC18F, Whatman).

[4] = In vitro metabolism rate by use of liver microsomes, human; format: in vitro ADME
Protocol: as §1, §2, §3, §4

[5] = Distribution in rat body (radioactivity in the brain); format: in vivo, Wistar male rats; details: caudal vein
Protocol: Wistar male rats (purchased from Japan SLC, Inc.) were conditioned for seven days, maintaining water and chow (commercial solid chow: F-2, product of Funabashi Farm) ad libitum, and the non-fasting rats were employed in the experiment (8-week-old at experiment).
Each of compound 23, compound 24, and [^125I]-IMPY was dissolved in a solution containing 40 mM ascorbic acid and 0.1% Tween80, to thereby adjust the concentration to 100 μCi/200 μL. Each sample was administered to each rat through the caudal vein under non-anesthetization. […] The brain was cut into the left and right parts, and each part was weighed. The right brain was placed in a vial, and radioactivity was measured by means of a gamma counter. The radioactivity relative to the administration amount was calculated. Specifically, radioactivity of the tissue and that divided by the tissue weight were calculated as % I.D. and % I.D./g-tissue weight, respectively.

Rate of metabolism by liver microsomes [1]: 0.911 ± 0.331 pmol/min/mg protein
Rate of metabolism by liver microsomes [2]: 2.164 ± 0.647 pmol/min/mg protein
Rate of metabolism by liver microsomes [4]: 0.510 ± 0.137 pmol/min/mg protein
Radioactivity in the rat brain Mean ± SD ([5]; 2 min after administration): 1.110 ± 0.027 % I.D./g
Radioactivity in the rat brain Mean ± SD ([5]; 5 min after administration): 0.713 ± 0.098 % I.D./g
Radioactivity in the rat brain Mean ± SD ([5]; 15 min after administration): 0.337 ± 0.019 % I.D./g
Radioactivity in the rat brain Mean ± SD ([5]; 30 min after administration): 0.144 ± 0.021 % I.D./g
Radioactivity in the rat brain Mean ± SD ([5]; 60 min after administration): 0.065 ± 0.002 % I.D./g
Radioactivity in the rat brain Mean ± SD ([5]; 120 min after administration): 0.027 ± 0.001 % I.D./g
SMILES: CN(C)c1ccc(-c2cn3cc([125I])ccc3n2)cc1 [^125I-IMPY, reference compound]
Metabolites in the brain (TLC of extracted radioactive substance) [3]: provided a plurality of metabolites in the brain
